Laboratory results published in patent publication US8663646B2, “P53 peptide vaccine” (priority 2007, dated 2014).

Tests used:
[1] = target: T1, 20S immuno-proteasomes from mouse B-cell line (RMA) (Mus musculus, UniProt O35955+P28063+P28076); test: In vitro proteasome mediated digestion of 30-mers, mass spectrometry, immunoproteasome RMA; format: biochemical; settings: 30 residue long precursor peptides
T1 construct: 20S immuno-proteasomes were purified from a mouse B-cell line (RMA); endogenous in cells; host or cells: RMA cells; 20S proteasome purified from them
Experimental: (§1) In the context of the invention, “being inefficiently processed by a proteasome” preferably means that within the first hour of digestion by a proteasome less than 1% of total digested peptide is found. The processing by a proteasome is preferably assessed by incubating a purified proteasome, more preferably a human proteasome with a peptide comprising the potential CTL epitope (30 amino acid length approximately) in a proteasome digestion buffer during at least one hour at 37° C. The reaction is subsequently stopped by adding trifluoroacetic acid. Analysis of the digested peptides is performed with electrospray ionization mass spectrometry (see example 1). Even more preferably, the human proteasome is an immunoproteasome from B-LCL JY cells (Kessler J H et al. 2001).
(§2) 20S immuno-proteasomes were purified from a mouse B-cell line (RMA) and a human B-LCL cell line (JY) and 20S household proteasomes were purified from human tumor cell line (HeLa) as described (Kessler J H et al 2001). To assess kinetics, digestions were performed with different incubation periods as indicated. Briefly, peptides containing the (potential) CTL epitopes (30 mers, 20 μg) were incubated with 1 μg of purified proteasome at 37° C. for 1 h, 4 h and 24 h in 300 μl proteasome digestion buffer, trifluoroacetic acid (30 μl) was added to stop the digestion and samples were stored at −20° C. before mass spectrometric analysis. Electrospray ionization mass spectrometry was performed on a hybrid quadrupole time-of-flight mass spectromter, a Q-TOF (Micromass), equipped with an on-line nanoelectrospray interface with an approximate flow rate of […] as described (Kessler J H et al 2001). The peaks in the mass spectrum were searched in the digested precursor peptide using the Biolynx/proteins software (Micromass) supplied with the mass spectrometer. The intensity of the peaks in the mass spectra was used to establish the relative amounts of peptides generated after proteasome digestion. The relative amounts of the peptides are given as a percentage of the total amount of peptide digested by the proteasome at the indicated incubation time. Major cleavage sites are defined as more than >1% of total digested peptide within the first hour.

[2] = target: T2, 20S immuno-proteasomes from human B-LCL cell line (JY) (Homo sapiens, UniProt P28062+P28065+P40306); test: In vitro proteasome mediated digestion of 30-mers, mass spectrometry, immunoproteasome JY; format: biochemical; settings: 30 residue long precursor peptides
T2 construct: purified from a mouse B-cell line (RMA) and a human B-LCL cell line (JY); endogenous in cells; host or cells: B-LCL JY cells; 20S proteasome purified from them
Experimental: as §1, §2

HLA-A*2401 [3] = test: Competition based cellular binding assay, HLA-A*2401 (B-cell line VIJF); parameters: species or system human; settings: for Peptide Binding Affinity: HLA-A*2401, IC50 category; for HLA binding Affinity (Table 5): HLA type A24
HLA-A*2401 [4] = test: Stability of peptide-HLA complex, binding at 4° C. and 20° C., HLA-A*2401; parameters: species or system human; settings: for Peptide Binding Stability: HLA-A*2401, IC50 at 20° C. vs 4° C.; for HLA binding Stability (Table 5): HLA type A24
Experimental: Stability of other peptide-HLA complexes was preferably determined as follows. […] Peptides of >50% of the initial complexes was lost within 2 hours were considered unstable. […] The rest was designated as unstable peptide binding.
Peptides 8-11 residues in length were selected based on typical anchor residues for HLA-A*0101, A*0301, A*1101 and HLA-A*2401 (Rammensee H G et al). The capacity of peptides to bind was tested in a competition based cellular binding assay as previously described (van der Burg S H et al 1995). FL-labeled reference peptides were synthesized as Cys-derivative (van der Burg S H et al 1995). Fluorescence labeled reference peptides used were: YLEPAC(FL)AK (SEQ ID NO: 87) (HLA-A*0101) and KVFPC(FL)ALINK (SEQ ID NO: 88) (HLA-A*1101) (Sette A et al), KVFPC(FL)ALINK (SEQ ID NO: 89) (HLAA*0301) (van der Burg S H et al 1995) and RYLKC(FL)QQLL (SEQ ID NO: 90) (A*2401) (Dai L C et al). B-cell lines used are: CAA (A*0101), EKR (A*0301), BVR (A*1101), VIJF (A*2401). The relative binding capacity of the peptides is expressed as the peptide concentration to inhibit 50% (1050) of the binding of the reference peptide. […] Peptide stabilization for HLA-A*0201 was performed as previously described (van der Burg S H et al, 1996). Peptides of >50% of the initial complexes was lost within 2 hours were considered unstable. Stability of other peptide-HLA complexes was determined as follows. Peptide binding was performed at 4° C. and 20° C. and 1050 were determined. […] The rest was designated as unstable peptide binding.

[5] = target: T3, 20S household proteasomes from human tumor cell line (HeLa) (Homo sapiens, UniProt P28072+P28074+Q99436); test: In vitro proteasome mediated digestion of 30-mers, mass spectrometry, household proteasome HeLa; format: biochemical; settings: 30 residue long precursor peptides
T3 construct: 20S household proteasomes were purified from human tumor cell line (HeLa); endogenous in cells; host or cells: HeLa cells; 20S proteasome purified from them
Experimental: as §1, §2

HLA-A*0201 = HLA-A*0201 (Homo sapiens, UniProt P04439, D140Y/D185E/D98H/E176V/E277Q/G131W/G231S/I119V/I121R/I166T/I218V/L300P/L318F/N151K/N90K/P208A/P217A/Q86G/Q94H/R138H/R169H/T345S); test: Peptide stabilization for HLA-A*0201; format: binding
HLA-A*0101 = target: T4, HLA-A*0101 (Homo sapiens, UniProt P04439, A114D/A174V/A182V/D101N/D185E/E176A/E190D/L180R/Q94H/R68K/S129P/T187R/V100A/V91M/W191G); test: Stability of peptide-HLA complex, binding at 4° C. and 20° C., HLA-A*0101
T4 construct: B-cell lines used are: CAA (A*0101), EKR (A*0301), BVR (A*1101), VIJF (A*2401); endogenous in cells; host or cells: B-cell line CAA

Row | Structure (SMILES) | Proteasomal Cleavage of C-terminus, IP (RMA) [1] | Proteasomal Cleavage of C-terminus, IP (JY) [2] | Peptide Binding Affinity (HLA-A*2401 [3]) | Peptide Binding Stability (HLA-A*2401 [4]) | Proteasomal Cleavage of C-terminus, HH (HeLa) [5] | HLA binding Affinity (Table 5) (HLA-A*2401 [3]) | HLA binding Stability (Table 5) (HLA-A*2401 [4]) | HLA binding Stability (Table 5) (HLA-A*0201; HLA type A2, value in hours) [h] | Peptide Binding Stability (HLA-A*0201; HLA-A*0201, p53 peptides) [h] | HLA binding Stability (Table 5) (HLA-A*0101; HLA type A1) | Peptide Binding Stability (HLA-A*0101; HLA-A*0101, IC50 at 20° C. vs 4° C.)
1 | CC(C)C[C@H](NC(=O)[C@H](CC(C)C)NC(=O)[C@H](CCCCN)NC(=O)[C@H](Cc1c[nH]c2ccccc12)NC(=O)[C@H](CC(C)C)NC(=O)[C@H](CC(=O)O)NC(=O)[C@H](CO)NC(=O)[C@H](Cc1ccccc1)NC(=O)[C@@H](N)[C@@H](C)O)C(=O)O [p53 18-26] | + (Major cleavage sites are defined as more than >1% of total digested peptide within the first hour) | + (Major cleavage sites are defined as more than >1% of total digested peptide within the first hour) | high | + (Stable peptides displayed IC50 at 20 °C that deviated <2 times of the IC50 at 4° C.) | + (Major cleavage sites are defined as more than >1% of total digested peptide within the first hour) |  |  |  |  |  | 
2 | CC(C)C[C@H](NC(=O)[C@H](CCCNC(=N)N)NC(=O)[C@H](Cc1ccccc1)NC(=O)CNC(=O)[C@H](Cc1ccc(O)cc1)NC(=O)[C@H](CO)NC(=O)CNC(=O)[C@H](CCC(N)=O)NC(=O)[C@H](Cc1ccc(O)cc1)NC(=O)[C@@H](N)[C@@H](C)O)C(=O)O [p53 102-111] | + (Major cleavage sites are defined as more than >1% of total digested peptide within the first hour) | + (Major cleavage sites are defined as more than >1% of total digested peptide within the first hour) | high | + (Stable peptides displayed IC50 at 20 °C that deviated <2 times of the IC50 at 4° C.) | + (Major cleavage sites are defined as more than >1% of total digested peptide within the first hour) |  |  |  |  |  | 
3 | CC(C)C[C@H](NC(=O)[C@H](CCCNC(=N)N)NC(=O)[C@H](Cc1ccccc1)NC(=O)CNC(=O)[C@H](Cc1ccc(O)cc1)NC(=O)[C@@H](N)CO)C(=O)NCC(=O)N[C@@H](Cc1ccccc1)C(=O)O [p53 106-113] | + (Major cleavage sites are defined as more than >1% of total digested peptide within the first hour) | + (Major cleavage sites are defined as more than >1% of total digested peptide within the first hour) | high | + (Stable peptides displayed IC50 at 20 °C that deviated <2 times of the IC50 at 4° C.) | + (Major cleavage sites are defined as more than >1% of total digested peptide within the first hour) |  |  |  |  |  | 
4 | CC(C)C[C@H](NC(=O)[C@H](Cc1ccccc1)NC(=O)CNC(=O)[C@H](CC(C)C)NC(=O)[C@H](CCCNC(=N)N)NC(=O)[C@H](Cc1ccccc1)NC(=O)CNC(=O)[C@H](Cc1ccc(O)cc1)NC(=O)[C@@H](N)CO)C(=O)O [p53 106-114] | + (Major cleavage sites are defined as more than >1% of total digested peptide within the first hour) | + (Major cleavage sites are defined as more than >1% of total digested peptide within the first hour) | high | +/− (Peptides that displayed IC50 at 20 °C of more than twice the IC50 at 4 °C but IC50 < 15 μM were considered to bind with intermediate stability.) | + (Major cleavage sites are defined as more than >1% of total digested peptide within the first hour) | high | +/− (Peptides that displayed IC50 at 20 °C of more than twice the IC50 at 4 °C but IC50 < 15 μM were considered to bind with intermediate stability.) |  |  |  | 
5 | CC(C)C[C@H](NC(=O)[C@@H](N)Cc1ccccc1)C(=O)N[C@@H](Cc1c[nH]cn1)C(=O)N[C@@H](CO)C(=O)NCC(=O)N[C@H](C(=O)N[C@@H](C)C(=O)N[C@@H](CCCCN)C(=O)N[C@@H](CO)C(=O)N[C@H](C(=O)O)C(C)C)[C@@H](C)O [p53 113-122] | + (Major cleavage sites are defined as more than >1% of total digested peptide within the first hour) | + (Major cleavage sites are defined as more than >1% of total digested peptide within the first hour) |  |  | + (Major cleavage sites are defined as more than >1% of total digested peptide within the first hour) |  |  | 6 | 6 |  | 
6 | CC(C)C[C@H](NC(=O)[C@H](CC(N)=O)NC(=O)CNC(=O)[C@H](CCC(=O)O)NC(=O)[C@@H](NC(=O)[C@@H](N)CCCNC(=N)N)C(C)C)C(=O)N[C@@H](CCCNC(=N)N)C(=O)N[C@H](C(=O)N[C@@H](CCC(=O)O)C(=O)N[C@@H](Cc1ccc(O)cc1)C(=O)O)C(C)C [p53 196-205] |  |  |  |  |  |  |  |  |  | + (Stable peptides displayed IC50 at 20 °C that deviated <2 times of the IC50 at 4° C.) | + (Stable peptides displayed IC50 at 20 °C that deviated <2 times of the IC50 at 4° C.)
7 | CSCC[C@H](N)C(=O)N[C@@H](Cc1ccccc1)C(=O)N[C@@H](CCCNC(=N)N)C(=O)N[C@@H](CCC(=O)O)C(=O)N[C@@H](CC(C)C)C(=O)N[C@@H](CC(N)=O)C(=O)N[C@@H](CCC(=O)O)C(=O)N[C@@H](C)C(=O)N[C@@H](CC(C)C)C(=O)O [p53 340-348, MFRELNEAL] |  |  | high | +/− (Peptides that displayed IC50 at 20 °C of more than twice the IC50 at 4 °C but IC50 < 15 μM were considered to bind with intermediate stability.) |  | high | +/− (Peptides that displayed IC50 at 20 °C of more than twice the IC50 at 4 °C but IC50 < 15 μM were considered to bind with intermediate stability.) |  |  |  | 
